We go through six compounds from ChEMBL document CHEMBL6182900, “Discovery of potent focal adhesion kinase (FAK) inhibitor A8 with enhanced antitumor activity” (Eur J Med Chem, 2025).

SMILES strings stand for the structures.

The target in data set [1] is Focal adhesion kinase 1 (Homo sapiens, UniProt Q05397). The data set is described as follows: Inhibition of FAK (unknown origin) by HTRF assay.
The target in data set [2] is T1, Cytochrome P450 1A2 (Homo sapiens, UniProt P05177).
T1 sequence (P05177 whole entry): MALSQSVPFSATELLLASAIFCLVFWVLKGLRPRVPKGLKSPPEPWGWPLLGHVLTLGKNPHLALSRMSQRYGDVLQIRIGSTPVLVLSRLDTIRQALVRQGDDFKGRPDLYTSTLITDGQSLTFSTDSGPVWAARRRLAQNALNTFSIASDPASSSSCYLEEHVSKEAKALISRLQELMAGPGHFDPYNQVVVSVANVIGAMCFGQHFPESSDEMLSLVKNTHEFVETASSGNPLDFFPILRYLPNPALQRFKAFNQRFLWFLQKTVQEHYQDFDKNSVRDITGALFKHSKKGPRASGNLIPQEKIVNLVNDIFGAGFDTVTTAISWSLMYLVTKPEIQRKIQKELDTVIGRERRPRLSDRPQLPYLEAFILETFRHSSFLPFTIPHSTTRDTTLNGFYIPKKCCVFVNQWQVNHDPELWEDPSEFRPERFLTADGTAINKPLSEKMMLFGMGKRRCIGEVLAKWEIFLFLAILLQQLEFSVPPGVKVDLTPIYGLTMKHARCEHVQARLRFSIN
Kind of data set: Inhibition of CYP1A2 in human liver microsomes in presence of NADPH by LC-MS/MS analysis. Type of data set: ADME, Microsome. Background: Liver microsomes are a subcellular fraction often used to study metabolism.

Data set [3] has as its target Cytochrome P450 3A4 (Homo sapiens, UniProt P08684). Kind of data set: Inhibition of CYP3A4 in human liver microsomes in presence of NADPH by LC-MS/MS analysis. The class given is ADME, Microsome.
For data set [4], the target named is Cytochrome P450 2C9 (Homo sapiens, UniProt P11712). The data set is described as follows: Inhibition of CYP2C9 in human liver microsomes in presence of NADPH by LC-MS/MS analysis. The class given is ADME, Microsome.
The target in data set [5] is Cytochrome P450 2D6 (Homo sapiens, UniProt P10635). The data set is described as follows: Inhibition of CYP2D6 in human liver microsomes in presence of NADPH by LC-MS/MS analysis. Type of data set: ADME, Microsome.
Data set [6] has as its target Cytochrome P450 2C19 (Homo sapiens, UniProt P33261). The data set is described as follows: Inhibition of CYP2C19 in human liver microsomes in presence of NADPH by LC-MS/MS analysis. Type of data set: ADME, Microsome.
Data set [7] relates to SK-OV-3. Kind of data set: Antitumor activity against human SK-OV-3 cells xenografted in mouse model assessed as tumor growth inhibition at 25 mg/kg co-administered with paclitaxel as twice daily dose for 5 days and measured after 2 days break relative to control. To be noted: SK-OV-3, 168 h, read-out: TGI. (In general: A xenograft is tissue or cells of one species grown in another, often human tumour cells in immunodeficient mice.)

The subject of data set [8] is A549. The data set is described as follows: Antitumor activity against human A549 cells xenografted in mouse model assessed as tumor growth inhibition at 50 mg/kg, po administered for 5 days and measured after 2 days relative to control. Conditions: 168 h, read-out: TGI.
Data set [9] relates to SK-OV-3. Kind of data set: Antitumor activity against human SK-OV-3 cells xenografted in mouse model assessed as tumor growth inhibition at 25 mg/kg administered twice daily for 5 days and measured after 2 days break relative to control. Conditions: SK-OV-3, 168 h, time 7 day, read-out: TGI. Type of data set: functional.
The nature of data set [10]: in vitro. Conditions: human, liver microsomes.
Description: Metabolic stability in human liver microsomes assessed as intrinsic clearance preincubated for 5 mins followed by NADPH addition and measured after 60 mins by LC-MS/MS analysis
In data set [11] the test system is SK-OV-3. Kind of data set: Antitumor activity against human SK-OV-3 cells xenografted in mouse model assessed as tumor growth inhibition at 4 mg/kg, ip administered as weekly dose relative to control. The class given is functional. To be noted: read-out: TGI.

Cytochrome P450 2C19, sequence (P33261 whole entry): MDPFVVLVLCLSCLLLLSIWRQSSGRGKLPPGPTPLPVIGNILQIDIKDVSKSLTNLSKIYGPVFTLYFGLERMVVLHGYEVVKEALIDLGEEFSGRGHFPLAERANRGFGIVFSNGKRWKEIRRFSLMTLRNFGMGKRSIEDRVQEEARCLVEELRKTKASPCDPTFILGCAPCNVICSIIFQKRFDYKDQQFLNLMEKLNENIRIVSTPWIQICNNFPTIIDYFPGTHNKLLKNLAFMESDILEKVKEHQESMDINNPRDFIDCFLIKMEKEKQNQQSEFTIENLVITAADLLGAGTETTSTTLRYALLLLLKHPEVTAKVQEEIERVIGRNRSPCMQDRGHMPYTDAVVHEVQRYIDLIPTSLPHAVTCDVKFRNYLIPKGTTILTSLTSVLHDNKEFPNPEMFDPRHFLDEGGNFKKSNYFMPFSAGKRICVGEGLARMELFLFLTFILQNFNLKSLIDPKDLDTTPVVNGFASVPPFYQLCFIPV
Cytochrome P450 2C9, sequence (P11712 whole entry): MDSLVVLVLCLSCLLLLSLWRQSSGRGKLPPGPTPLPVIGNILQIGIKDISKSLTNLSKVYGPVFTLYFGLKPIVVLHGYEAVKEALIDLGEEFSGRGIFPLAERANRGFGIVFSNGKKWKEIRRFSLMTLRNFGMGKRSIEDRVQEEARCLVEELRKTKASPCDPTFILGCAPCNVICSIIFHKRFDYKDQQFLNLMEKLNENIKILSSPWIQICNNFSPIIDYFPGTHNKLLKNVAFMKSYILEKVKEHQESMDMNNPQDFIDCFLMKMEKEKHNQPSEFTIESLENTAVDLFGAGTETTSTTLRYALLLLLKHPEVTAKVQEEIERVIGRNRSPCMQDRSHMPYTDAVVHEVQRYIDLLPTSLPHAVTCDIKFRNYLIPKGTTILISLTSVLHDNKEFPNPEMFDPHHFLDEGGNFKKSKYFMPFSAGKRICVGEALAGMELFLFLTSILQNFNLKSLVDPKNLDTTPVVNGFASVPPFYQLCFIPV
Cytochrome P450 2D6, sequence (P10635 whole entry): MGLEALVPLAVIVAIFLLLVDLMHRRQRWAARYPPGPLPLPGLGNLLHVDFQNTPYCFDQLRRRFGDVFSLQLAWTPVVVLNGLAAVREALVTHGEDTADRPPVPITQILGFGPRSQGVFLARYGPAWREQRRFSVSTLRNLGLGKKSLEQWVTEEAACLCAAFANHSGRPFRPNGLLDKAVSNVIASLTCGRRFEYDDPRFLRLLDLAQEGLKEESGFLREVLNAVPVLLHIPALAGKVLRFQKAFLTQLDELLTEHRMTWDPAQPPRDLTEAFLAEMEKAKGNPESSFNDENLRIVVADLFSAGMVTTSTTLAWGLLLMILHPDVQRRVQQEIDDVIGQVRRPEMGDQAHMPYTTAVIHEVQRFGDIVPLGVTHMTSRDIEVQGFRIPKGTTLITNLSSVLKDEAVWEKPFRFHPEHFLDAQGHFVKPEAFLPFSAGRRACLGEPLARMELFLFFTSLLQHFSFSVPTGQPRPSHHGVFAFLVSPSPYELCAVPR
Cytochrome P450 3A4, sequence (P08684 whole entry): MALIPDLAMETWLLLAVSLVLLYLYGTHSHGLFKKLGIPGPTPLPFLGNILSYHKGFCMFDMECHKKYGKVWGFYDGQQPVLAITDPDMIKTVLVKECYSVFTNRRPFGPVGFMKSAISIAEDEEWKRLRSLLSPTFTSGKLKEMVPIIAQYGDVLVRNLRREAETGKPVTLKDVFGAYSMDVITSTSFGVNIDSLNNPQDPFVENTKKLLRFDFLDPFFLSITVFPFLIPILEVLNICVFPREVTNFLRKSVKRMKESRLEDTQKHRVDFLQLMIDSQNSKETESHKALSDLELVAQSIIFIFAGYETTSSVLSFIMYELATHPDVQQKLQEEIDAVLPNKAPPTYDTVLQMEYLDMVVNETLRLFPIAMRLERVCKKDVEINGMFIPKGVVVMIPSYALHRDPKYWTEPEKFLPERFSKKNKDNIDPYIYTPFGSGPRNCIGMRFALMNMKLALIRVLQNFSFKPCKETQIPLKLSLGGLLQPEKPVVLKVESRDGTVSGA
Focal adhesion kinase 1, sequence (Q05397 whole entry): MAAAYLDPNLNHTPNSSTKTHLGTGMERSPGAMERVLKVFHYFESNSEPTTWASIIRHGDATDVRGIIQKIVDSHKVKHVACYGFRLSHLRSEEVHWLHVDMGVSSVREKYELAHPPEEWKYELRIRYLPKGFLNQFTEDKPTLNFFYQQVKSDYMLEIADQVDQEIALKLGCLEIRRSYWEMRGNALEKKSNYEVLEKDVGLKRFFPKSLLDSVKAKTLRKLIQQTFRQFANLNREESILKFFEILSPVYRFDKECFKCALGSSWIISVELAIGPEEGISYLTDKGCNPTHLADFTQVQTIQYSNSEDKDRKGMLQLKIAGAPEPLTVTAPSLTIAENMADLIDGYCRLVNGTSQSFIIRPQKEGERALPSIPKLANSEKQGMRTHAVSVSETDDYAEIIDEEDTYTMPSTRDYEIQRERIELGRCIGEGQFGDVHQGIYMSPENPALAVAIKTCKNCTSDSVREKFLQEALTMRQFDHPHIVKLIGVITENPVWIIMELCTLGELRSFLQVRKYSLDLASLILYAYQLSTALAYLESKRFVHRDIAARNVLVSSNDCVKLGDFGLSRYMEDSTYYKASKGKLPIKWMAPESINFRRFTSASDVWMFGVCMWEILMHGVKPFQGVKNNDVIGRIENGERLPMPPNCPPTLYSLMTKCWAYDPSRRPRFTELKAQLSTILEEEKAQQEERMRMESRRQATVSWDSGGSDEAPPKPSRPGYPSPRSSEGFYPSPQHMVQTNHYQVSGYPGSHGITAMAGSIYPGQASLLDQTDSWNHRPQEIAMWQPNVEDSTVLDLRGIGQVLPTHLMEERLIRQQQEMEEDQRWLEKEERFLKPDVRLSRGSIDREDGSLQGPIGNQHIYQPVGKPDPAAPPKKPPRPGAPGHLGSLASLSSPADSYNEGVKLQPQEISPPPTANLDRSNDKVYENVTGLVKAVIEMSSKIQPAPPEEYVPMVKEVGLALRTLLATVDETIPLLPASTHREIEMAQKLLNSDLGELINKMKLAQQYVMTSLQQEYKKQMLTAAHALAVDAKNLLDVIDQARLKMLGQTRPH

The IC50 is the concentration needed to halve the response being measured. In the case of `CC(=O)Nc1ccc(Nc2nc(Nc3ccc(NC(=O)CCNC(=O)c4ccc(F)nc4)cc3)ncc2Br)c(NC(C)=O)c1`, the midpoint of inhibition in [1], the IC50, lay at 0.0113 µM.
On to `CNC(=O)c1ccccc1Nc1nc(Nc2ccc(OCCF)cc2)ncc1Br`, for which the IC50 was 26.6 µM in data set [2]; over 50 µM in [3]; 22.5 µM in data set [4]; over 50 µM in [5]; 36.2 µM in data set [6].
For `CNC(=O)c1ccc(Nc2ncc(C(F)(F)F)c(NCc3nccnc3N(C)S(C)(=O)=O)n2)cc1` [DEFACTINIB], the inhibition in vivo at 25 mg/kg is 74.7% in [7] and 53.9% in data set [9]. In addition, the inhibition in vivo at 50 mg/kg in data set [8] was determined as 40.7%.
The term microsomal CLint denotes the capacity of the preparation to metabolise the compound, expressed as a volume cleared per time. Read a low microsomal CLint as slow turnover. In data set [10], `O=C(O)Cc1ccccc1Nc1c(Cl)cccc1Cl` [DICLOFENAC] returned a microsomal CLint at 1 h of 232 µL/min/mg.
On to `C#Cc1cccc(Nc2ncnc3cc(OCCOC)c(OCCOC)cc23)c1` [ERLOTINIB], for which the inhibition in vivo at 50 mg/kg in [8] amounted to 47.4%.
As for `CC(=O)O[C@H]1C(=O)[C@@]2(C)[C@H]([C@H](OC(=O)c3ccccc3)[C@]3(O)C[C@H](OC(=O)[C@H](O)[C@@H](NC(=O)c4ccccc4)c4ccccc4)C(C)=C1C3(C)C)[C@]1(OC(C)=O)CO[C@@H]1C[C@@H]2O` [PACLITAXEL], the inhibition in vivo at 4 mg/kg in data set [11] was found to be 55.3%.
